This is an account of results in patent US20240245762A1, “METHODS AND PLATFORMS FOR PROMOTING ANTIGEN-SPECIFIC TOLERANCE IN THE TREATMENT OF TYPE 1 DIABETES AND GRAFT REJECTION AND COMPOSITIONS RELATING THERETO” (University of Maryland, College Park, priority 2021, published 2024).

The assay relates to Eα presentation in MHC-II. The assay is described as follows: Immunohistochemistry of Eα presentation in MHC-II (Y-ae) around HEVs of LNs. Format: in vivo, mouse. As to conditions: three daily i.p. injections starting on the day of MP treatment. From the text:
Immunohistochemistry and histology. The following antibodies were used for immunohistochemistry: ERTR7 (clone sc-73355), CD11c (cloneHL3), Laminin alpha4 (clone 775830), laminin alpha 5 (polyclonal), Foxp3 (clone NRRF-30), Vα2 TCR (clone B20.1). For immunohistochemistry, LNs and spleens were frozen with OCT compound (Scigen Tissue-Plus, Gardena, CA). Frozen sections were cut at 6 μm, fixed with cold acetone, blocked with 5% goat or donkey serum (Jackson ImmunoResearch, West Grove, PA) and incubated with the indicated antibodies and DAPI. […] Images were acquired with a Nikon Eclipse 700 (Nikon, Melville, NY, USA) and analyzed with Volocity image analysis software (Perkin Elmer, Waltham, MA). The positive staining area percentage was quantified based on at least three independent experiments with 3 sections per LN and 3-5 fields/section.
Subsequently, we directly investigated the trafficking and presentation of antigen from MPs in […] LNs using Y-ae, a recently-developed antibody tool. […] At 2 days, Eα presentation localized with HEVs was detected in treated LNs (FIG. 12f), and increased by day 6 (FIG. 12g). […]

`CCCCCCCCc1ccc(CCC(N)(CO)CO)cc1` [FTY720]: the “effect on Eα presentation after Eα MP or Eα/rapamycin MP treatment” value is reported as “did not significantly affect Eα presentation”.
